The record followed here is ChEMBL document CHEMBL1201862, “PubChem BioAssay data set” (2004).

For assay [1], the target named is G-protein coupled receptor 55 (Homo sapiens, UniProt Q9Y2T6). In words: GPR55 antagonists, SAR follow-up, counter-screen for GPR35 antagonist project, imaging, image-based (AID 2397). It is filed as functional.
Assay [2] addresses T1, G-protein coupled receptor 35 (Homo sapiens, UniProt Q9HC97). In words: GPR35 antagonists blocking zaprinast-driven arrestin recruitment, primary screen, imaging, U2OS, beta-arrestin-GFP, zaprinast agonist (AID 2058).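 Also: antagonist potency meaning inhibition of agonist-induced arrestin redistribution.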 Type of assay: functional.
Assay [3] concerns the target T1, G-protein coupled receptor 35. Kind of assay: SAR Analysis for the identification of Selective Antagonists of ERK1/2 Activity in GPR35-Overexpressing U2OS Cells. [Related pubchem assays: 2079, 2058 ]. Type of assay: functional, cell-based.
Assay [4] has as its target Sphingosine 1-phosphate receptor 1 (Homo sapiens, UniProt P21453). In words: Fluorescence-based counterscreen assay for S1P4 agonists: Cell-based dose response high throughput screening assay to identify agonists of the Sphingosine 1-Phosphate Receptor 1 (S1P1). [Related pubchem assays (depositor defined):AID1509, AID1523, AID1801, AID463107, AID463118, AID463119, AID463122, AID463123, AID463129, AID463225, AID504400, AID504460]. It is filed as functional.

Assay [5] has as its target T2, Sphingosine 1-phosphate receptor 4 (Homo sapiens, UniProt O95977).
T2 sequence (O95977 whole entry): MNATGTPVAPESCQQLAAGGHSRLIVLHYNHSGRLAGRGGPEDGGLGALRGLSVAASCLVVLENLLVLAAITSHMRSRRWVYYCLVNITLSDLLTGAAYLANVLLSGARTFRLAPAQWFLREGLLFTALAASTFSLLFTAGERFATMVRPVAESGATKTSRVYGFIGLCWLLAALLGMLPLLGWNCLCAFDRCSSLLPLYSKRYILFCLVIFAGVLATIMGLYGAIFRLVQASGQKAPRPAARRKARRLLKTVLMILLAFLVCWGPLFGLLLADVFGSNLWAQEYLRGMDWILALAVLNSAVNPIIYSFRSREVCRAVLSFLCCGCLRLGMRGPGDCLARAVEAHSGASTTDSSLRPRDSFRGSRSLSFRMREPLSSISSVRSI
Kind of assay: Fluorescence dose response cell-based high throughput screening assay for agonists of the Sphingosine 1-Phosphate Receptor 4 (S1P4). [Related pubchem assays: 1509 (Primary screen.), 1523 (Confirmation screen in triplicates.)]. It is filed as functional.

The target in assay [6] is Mu-type opioid receptor (Homo sapiens, UniProt P35372). Kind of assay: HTS Image-Based Screen for Agonists of the MOR Receptor. [Related pubchem assays (depositor defined):AID1777, AID1785, AID1786, AID2133]. Type of assay: functional.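 Also: imaging of beta-arrestin GFP recruitment into spots after receptor activation.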
Chain of Mu-type opioid receptor (P35372 whole entry): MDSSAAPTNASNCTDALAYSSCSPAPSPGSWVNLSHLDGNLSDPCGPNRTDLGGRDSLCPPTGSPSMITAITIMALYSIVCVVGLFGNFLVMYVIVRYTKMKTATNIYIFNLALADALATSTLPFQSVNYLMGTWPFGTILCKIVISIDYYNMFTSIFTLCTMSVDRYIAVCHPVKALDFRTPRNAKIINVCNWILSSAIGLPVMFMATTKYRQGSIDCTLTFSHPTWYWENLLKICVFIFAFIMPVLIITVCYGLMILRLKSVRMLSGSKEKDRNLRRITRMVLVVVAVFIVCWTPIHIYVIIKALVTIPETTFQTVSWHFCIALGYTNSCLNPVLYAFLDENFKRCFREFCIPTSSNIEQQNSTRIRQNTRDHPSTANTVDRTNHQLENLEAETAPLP
Assay [7] deals with T3, Delta-type opioid receptor (Homo sapiens, UniProt P41143). Kind of assay: HTS Image-Based Screen for Agonists of the DOR Receptor. [Related pubchem assays (depositor defined):AID1777, AID1786, AID2133]. Type of assay: functional.
T3 sequence (P41143 whole entry): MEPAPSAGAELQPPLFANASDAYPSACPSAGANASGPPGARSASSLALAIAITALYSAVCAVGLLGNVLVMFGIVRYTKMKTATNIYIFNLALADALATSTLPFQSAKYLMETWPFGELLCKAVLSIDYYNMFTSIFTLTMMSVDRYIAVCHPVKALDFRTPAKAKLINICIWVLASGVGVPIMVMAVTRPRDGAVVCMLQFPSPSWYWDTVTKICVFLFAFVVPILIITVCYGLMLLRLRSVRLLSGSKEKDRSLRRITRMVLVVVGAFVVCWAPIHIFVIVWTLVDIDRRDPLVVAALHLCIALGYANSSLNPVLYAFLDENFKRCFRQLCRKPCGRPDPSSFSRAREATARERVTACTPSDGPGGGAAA
In assay [8] the target is T4, Latent membrane protein 1 (Human herpesvirus 4 (strain B95-8), UniProt P03230).
T4 sequence (P03230 whole entry): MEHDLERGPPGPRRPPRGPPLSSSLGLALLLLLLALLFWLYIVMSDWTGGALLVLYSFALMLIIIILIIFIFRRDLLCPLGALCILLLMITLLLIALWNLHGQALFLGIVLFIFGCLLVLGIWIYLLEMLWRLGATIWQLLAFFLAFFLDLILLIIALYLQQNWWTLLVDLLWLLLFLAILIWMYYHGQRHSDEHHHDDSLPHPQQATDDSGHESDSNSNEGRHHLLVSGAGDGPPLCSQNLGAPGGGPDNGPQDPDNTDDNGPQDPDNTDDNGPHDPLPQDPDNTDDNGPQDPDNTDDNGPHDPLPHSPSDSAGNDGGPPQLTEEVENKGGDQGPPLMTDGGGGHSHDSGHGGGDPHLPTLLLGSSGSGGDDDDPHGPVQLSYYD
In words: TES1-eGFP NF-kB reporter inhibition versus Tet-On dsRED, dose response, selectivity assay for LMP1 NF-kB inhibitor project, imaging, HEK293T, dual-color eGFP/dsRED, cherry-picks (AID 588398). Type of assay: functional, cell-based.

Assay [9] deals with T5, Kappa-type opioid receptor (Homo sapiens, UniProt P41145). Type of assay: functional.
T5 sequence (P41145 whole entry): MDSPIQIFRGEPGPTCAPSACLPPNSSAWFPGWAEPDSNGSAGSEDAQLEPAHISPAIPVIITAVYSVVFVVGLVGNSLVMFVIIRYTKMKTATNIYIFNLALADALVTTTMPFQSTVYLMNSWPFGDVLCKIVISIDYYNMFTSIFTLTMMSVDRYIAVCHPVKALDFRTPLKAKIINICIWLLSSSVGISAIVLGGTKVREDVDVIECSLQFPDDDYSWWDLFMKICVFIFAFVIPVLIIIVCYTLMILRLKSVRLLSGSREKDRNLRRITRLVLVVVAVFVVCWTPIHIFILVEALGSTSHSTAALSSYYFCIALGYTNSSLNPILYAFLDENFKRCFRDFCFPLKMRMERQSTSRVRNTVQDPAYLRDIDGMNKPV
Assay [10] concerns the target Beta-galactosidase (Escherichia coli, UniProt Q8VNN2). It is filed as functional.
In assay [11] the target is T5, Kappa-type opioid receptor. It is filed as functional. The source holds these as a separate data set.
Assay [12] has as its target T3, Delta-type opioid receptor. In words: HTS Image-Based Screen for Antagonists of the DOR Receptor. [Related pubchem assays (depositor defined):AID1777, AID1785, AID1786, AID2133]. It is filed as functional.
For assay [13], the target named is T6, Intestinal-type alkaline phosphatase (Homo sapiens, UniProt P09923). Kind of assay: human intestinal alkaline phosphatase activators, dose response, biochemical, luminescence, uHTS hits (AID 463120). It is filed as functional.
T6 sequence (P09923 whole entry): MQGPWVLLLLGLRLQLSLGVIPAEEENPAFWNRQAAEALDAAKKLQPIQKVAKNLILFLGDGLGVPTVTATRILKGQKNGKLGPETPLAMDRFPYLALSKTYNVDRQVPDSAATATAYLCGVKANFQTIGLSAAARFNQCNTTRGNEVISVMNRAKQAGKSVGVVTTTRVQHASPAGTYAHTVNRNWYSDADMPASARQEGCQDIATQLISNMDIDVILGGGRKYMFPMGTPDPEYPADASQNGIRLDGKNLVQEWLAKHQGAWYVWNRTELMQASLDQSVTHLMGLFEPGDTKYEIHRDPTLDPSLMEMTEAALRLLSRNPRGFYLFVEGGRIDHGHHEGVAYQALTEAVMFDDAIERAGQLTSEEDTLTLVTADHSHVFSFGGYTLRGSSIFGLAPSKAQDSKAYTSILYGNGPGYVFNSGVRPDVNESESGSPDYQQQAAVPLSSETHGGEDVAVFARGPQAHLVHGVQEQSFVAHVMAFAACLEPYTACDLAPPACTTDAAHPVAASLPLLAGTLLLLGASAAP
Assay [14] deals with Intestinal-type alkaline phosphatase (Mus musculus, UniProt P24822). Kind of assay: PubChem AID 488874. It is filed as functional.
For assay [15], the target named is T7, Caspase-6 (Homo sapiens, UniProt P55212).
T7 sequence (P55212 whole entry): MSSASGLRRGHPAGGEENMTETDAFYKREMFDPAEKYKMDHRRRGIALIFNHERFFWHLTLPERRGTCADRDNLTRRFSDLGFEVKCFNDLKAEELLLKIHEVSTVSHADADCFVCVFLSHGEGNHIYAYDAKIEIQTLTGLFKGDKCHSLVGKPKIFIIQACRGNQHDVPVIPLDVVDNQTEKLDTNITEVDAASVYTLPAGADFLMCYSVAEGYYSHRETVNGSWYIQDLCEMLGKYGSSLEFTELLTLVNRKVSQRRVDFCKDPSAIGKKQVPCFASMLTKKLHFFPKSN
Kind of assay: human caspase-6 inhibitors, dose response, biochemical, VEID-R110 fluorescence, cherry-pick (AID 720632).

Assay [16] has as its target T6, Intestinal-type alkaline phosphatase. Kind of assay: human IAP activators, dose response, biochemical, luminescent, uHTS hits, set 2 (AID 488817).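 Also: potency of activators that raise enzyme activity.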 It is filed as functional.
The target in assay [17] is T8, Alkaline phosphatase, tissue-nonspecific isozyme (Homo sapiens, UniProt P05186).
T8 sequence (P05186 whole entry): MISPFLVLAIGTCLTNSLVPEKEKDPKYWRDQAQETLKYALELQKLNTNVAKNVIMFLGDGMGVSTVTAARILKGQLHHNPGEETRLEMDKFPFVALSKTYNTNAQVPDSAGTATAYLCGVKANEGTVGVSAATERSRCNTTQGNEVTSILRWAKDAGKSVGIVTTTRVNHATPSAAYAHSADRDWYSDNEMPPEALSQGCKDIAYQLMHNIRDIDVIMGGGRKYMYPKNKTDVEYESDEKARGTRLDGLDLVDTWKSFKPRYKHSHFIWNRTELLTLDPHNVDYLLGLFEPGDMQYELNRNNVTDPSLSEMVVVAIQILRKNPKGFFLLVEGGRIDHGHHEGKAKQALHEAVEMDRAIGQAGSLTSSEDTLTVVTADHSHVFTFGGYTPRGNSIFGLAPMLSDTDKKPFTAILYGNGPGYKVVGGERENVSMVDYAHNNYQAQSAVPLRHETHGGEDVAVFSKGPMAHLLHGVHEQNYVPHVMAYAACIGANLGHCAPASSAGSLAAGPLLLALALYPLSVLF
Kind of assay: TNAP enzyme activators, dose response, selectivity assay for human IAP activator project, biochemical, TNAP isozyme, human IAP uHTS hits (AID 488886).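 Also: potency of compounds raising TNAP activity as a selectivity check on IAP activators.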 It is filed as functional.

In assay [18] the target is Phospholipase D2 (Homo sapiens, UniProt O14939). Kind of assay: PLD2 inhibitor potency in cells, dose response (AID 602147).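 Also: cellular assay in HEK293 cells overexpressing GFP-tagged PLD2.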 It is filed as functional.
For assay [19], the target named is Dual specificity protein phosphatase 6 (Rattus norvegicus, UniProt Q64346). Type of assay: functional.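 Also: confirmatory in vitro dose-response testing of MKP-3 inhibition; recombinant His-tagged MKP-3 made in E. coli BL21 with OMFP substrate.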
Chain of Dual specificity protein phosphatase 6 (Q64346 whole entry): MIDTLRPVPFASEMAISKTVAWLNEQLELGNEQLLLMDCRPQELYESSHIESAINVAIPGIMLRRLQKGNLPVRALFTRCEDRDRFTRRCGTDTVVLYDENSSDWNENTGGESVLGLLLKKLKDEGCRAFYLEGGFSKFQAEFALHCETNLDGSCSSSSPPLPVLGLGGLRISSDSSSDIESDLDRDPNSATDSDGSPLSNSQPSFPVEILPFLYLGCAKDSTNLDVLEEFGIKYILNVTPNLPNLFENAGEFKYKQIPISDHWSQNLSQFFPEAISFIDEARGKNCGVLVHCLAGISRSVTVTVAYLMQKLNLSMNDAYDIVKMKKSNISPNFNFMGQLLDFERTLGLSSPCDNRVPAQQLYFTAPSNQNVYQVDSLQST
Assay [20] deals with T9, Tyrosine-protein phosphatase non-receptor type 22 (Homo sapiens, UniProt Q9Y2R2). In words: SAR LYP1 Fluorescent Assay using OMFP substrate for In Vitro dose response studies - Set 3. [Related pubchem assays (depositor defined):AID1779, AID1784, AID2140, AID2686]. Type of assay: functional.
T9 sequence (Q9Y2R2 whole entry): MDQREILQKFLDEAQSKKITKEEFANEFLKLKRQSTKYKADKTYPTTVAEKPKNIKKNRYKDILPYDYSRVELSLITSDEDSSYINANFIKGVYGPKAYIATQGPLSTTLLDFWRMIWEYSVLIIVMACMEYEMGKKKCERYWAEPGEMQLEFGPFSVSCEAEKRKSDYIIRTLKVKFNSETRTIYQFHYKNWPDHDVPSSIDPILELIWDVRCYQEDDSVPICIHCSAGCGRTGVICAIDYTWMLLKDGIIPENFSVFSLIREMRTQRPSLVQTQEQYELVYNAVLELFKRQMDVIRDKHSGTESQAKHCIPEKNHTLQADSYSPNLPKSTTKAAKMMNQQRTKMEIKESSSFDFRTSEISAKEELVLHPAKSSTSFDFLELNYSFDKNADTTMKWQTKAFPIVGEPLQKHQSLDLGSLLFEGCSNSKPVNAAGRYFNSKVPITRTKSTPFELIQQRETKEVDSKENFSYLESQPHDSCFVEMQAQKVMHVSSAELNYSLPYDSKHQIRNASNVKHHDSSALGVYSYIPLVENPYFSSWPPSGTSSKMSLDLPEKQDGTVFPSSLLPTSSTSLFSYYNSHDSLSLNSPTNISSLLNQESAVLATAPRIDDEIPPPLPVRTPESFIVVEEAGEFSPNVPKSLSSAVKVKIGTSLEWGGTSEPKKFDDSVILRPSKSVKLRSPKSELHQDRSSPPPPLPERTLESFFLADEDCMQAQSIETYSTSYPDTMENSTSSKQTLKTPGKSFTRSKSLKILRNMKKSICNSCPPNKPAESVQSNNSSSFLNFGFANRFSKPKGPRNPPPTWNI
For assay [21], the target named is Dual specificity protein phosphatase 3 (Homo sapiens, UniProt P51452). Kind of assay: SAR VHR1 Fluorescent Assay for In Vitro dose response studies Set 2. [Related pubchem assays (depositor defined):AID1654, AID1661, AID1878]. It is filed as functional.
Chain of Dual specificity protein phosphatase 3 (P51452 whole entry): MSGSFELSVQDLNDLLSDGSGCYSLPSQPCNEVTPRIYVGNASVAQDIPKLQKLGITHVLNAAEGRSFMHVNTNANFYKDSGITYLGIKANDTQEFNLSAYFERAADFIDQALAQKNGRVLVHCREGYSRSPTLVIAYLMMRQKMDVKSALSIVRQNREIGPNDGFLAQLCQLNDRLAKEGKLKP
Assay [22] has as its target Tyrosine-protein phosphatase non-receptor type 12 (Homo sapiens, UniProt Q05209). Kind of assay: SAR Selectivity Analysis of small molecule inhibitors of PEST using pCAP in a fluorescence assay. [Related pubchem assays (depositor defined):AID1779, AID1784, AID2135]. It is filed as functional.
In assay [23] the target is T9, Tyrosine-protein phosphatase non-receptor type 22. Kind of assay: LYP (PTPN22) phosphatase inhibitor potency, SAR follow-up, biochemical, pCAP fluorogenic substrate, fluorescence, set 3 (AID 449727). It is filed as functional.
Assay [24] concerns the target T10, Tyrosine-protein phosphatase non-receptor type 7 (Homo sapiens, UniProt P35236). Kind of assay: HePTP (PTPN7) phosphatase inhibitor potency, SAR follow-up, biochemical, set 2 (AID 449736). Type of assay: functional.
For assay [25], the target named is T10, Tyrosine-protein phosphatase non-receptor type 7. Kind of assay: redox-dependent HePTP inhibition, mechanism study, biochemical, fluorescence (AID 2068). It is filed as functional.
The target in assay [26] is Lysine-specific demethylase 4A (Homo sapiens, UniProt O75164). In words: JMJD2A histone demethylase inhibitors, dose response, selectivity assay for GASC-1 inhibitor project, biochemical, DELFIA europium, cherry-picked samples (AID 488840).

Active and inactive are the calls of the source.

T10 sequence (P35236 whole entry): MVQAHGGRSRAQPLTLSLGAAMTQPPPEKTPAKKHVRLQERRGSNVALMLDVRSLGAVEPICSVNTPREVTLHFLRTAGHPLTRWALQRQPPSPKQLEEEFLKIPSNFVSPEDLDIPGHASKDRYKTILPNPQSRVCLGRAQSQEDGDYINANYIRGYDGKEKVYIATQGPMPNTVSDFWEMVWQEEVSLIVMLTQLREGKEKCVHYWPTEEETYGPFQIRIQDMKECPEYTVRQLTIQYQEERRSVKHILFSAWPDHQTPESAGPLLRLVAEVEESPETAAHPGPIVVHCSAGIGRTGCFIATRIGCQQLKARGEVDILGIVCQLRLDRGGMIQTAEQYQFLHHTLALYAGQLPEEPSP
T1 sequence (Q9HC97 whole entry): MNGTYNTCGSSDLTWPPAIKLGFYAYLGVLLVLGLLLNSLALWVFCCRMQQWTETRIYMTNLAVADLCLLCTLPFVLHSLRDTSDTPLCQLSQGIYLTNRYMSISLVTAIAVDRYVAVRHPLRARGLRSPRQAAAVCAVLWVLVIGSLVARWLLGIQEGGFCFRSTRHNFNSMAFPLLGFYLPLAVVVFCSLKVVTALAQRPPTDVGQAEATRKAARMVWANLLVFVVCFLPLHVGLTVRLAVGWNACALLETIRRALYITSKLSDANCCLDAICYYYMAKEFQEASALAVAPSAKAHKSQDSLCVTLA
Chain of Sphingosine 1-phosphate receptor 1 (P21453 whole entry): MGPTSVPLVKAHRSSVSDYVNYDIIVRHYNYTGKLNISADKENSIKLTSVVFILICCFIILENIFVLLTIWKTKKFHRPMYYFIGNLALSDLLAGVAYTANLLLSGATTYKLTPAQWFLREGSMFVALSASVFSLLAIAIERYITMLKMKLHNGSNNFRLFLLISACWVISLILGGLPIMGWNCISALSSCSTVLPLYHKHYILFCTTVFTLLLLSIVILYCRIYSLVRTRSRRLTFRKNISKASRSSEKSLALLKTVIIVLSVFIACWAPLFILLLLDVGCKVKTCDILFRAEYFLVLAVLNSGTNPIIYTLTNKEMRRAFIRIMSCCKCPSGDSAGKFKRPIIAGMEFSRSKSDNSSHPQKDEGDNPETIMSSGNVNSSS
Chain of Tyrosine-protein phosphatase non-receptor type 12 (Q05209 whole entry): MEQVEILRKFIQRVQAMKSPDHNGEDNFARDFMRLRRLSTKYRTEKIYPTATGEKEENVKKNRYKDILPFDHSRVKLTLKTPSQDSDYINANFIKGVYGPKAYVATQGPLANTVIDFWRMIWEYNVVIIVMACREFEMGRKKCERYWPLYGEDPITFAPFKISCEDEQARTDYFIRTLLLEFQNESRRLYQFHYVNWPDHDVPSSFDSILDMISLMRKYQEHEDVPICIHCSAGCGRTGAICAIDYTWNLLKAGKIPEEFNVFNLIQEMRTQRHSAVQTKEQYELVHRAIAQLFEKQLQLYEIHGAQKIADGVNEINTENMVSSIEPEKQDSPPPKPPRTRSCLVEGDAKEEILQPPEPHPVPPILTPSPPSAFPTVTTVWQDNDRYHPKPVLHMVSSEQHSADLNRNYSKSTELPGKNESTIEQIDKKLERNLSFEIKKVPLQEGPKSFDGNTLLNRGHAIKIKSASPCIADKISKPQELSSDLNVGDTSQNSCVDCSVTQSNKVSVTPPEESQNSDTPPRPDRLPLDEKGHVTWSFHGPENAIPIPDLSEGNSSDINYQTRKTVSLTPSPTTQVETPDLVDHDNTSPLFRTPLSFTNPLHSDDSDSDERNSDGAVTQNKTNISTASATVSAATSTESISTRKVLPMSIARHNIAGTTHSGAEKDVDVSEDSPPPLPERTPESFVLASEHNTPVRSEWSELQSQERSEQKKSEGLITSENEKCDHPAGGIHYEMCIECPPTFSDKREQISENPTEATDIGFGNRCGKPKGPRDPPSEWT

Consider `CC(C)c1ccc(NC(=O)CSc2nc3ccsc3c(=O)n2Cc2ccc(C(=O)O)cc2)cc1`, for which the IC50 in assay [1] is 11.7 µM (inactive); in assay [2], 561 nM (active); in assay [3], 5.68 µM (active).
Turning to `CCN(c1ccccc1)S(=O)(=O)c1cc([N+](=O)[O-])ccc1N`, the EC50 in assay [4] is > 49.8 µM (inactive); in assay [5] it was 9.34 µM (active).
Consider `O=c1[nH]c(Nc2nc3ccccc3o2)nc2c1CCCC2`, for which the values for the EC50 in [6], in assay [7] and in assay [10] were > 32 µM (inactive), > 32 µM (inactive) and > 31.5 µM (inactive), respectively. For the same compound, the AC50 in assay [8] was 16.8 µM (active). Besides, the IC50 in assay [9] is 5.27 µM (active); in assay [11], greater than 32 µM; in assay [12], > 32 µM (inactive).
`Cc1cccc(OCC(=O)NNC(=O)c2ccc3[nH]cnc3c2)c1`: the values for the EC50 in [13], in assay [16] and in assay [17] were 9.75 µM (active), 13.5 µM (active) and 17.7 µM (active), respectively. Besides, the IC50 in [14] was > 100 µM (inactive). The AC50 in assay [15] was 44 µM (active).
As to `Cc1cccc(C(=O)N[C@@H](C)CN2CCC3(CC2)C(=O)NCN3c2ccccc2)c1`, the IC50 in assay [18] was 20 µM (active).
For `CCOC(=O)COc1c(Cl)cc(/C=C2/S/C(=N/c3ccc(F)cc3)NC2=O)cc1OCC`, the IC50 was 66.4 µM (active) in [19]; 74.8 µM (active) in assay [20]; > 100 µM (inactive) in assay [21]; 9.35 µM (active) in assay [22]; 54.2 µM (active) in assay [23]; 1.4 µM (active) in assay [24]. In addition, in assay [25], the IC50 was 10.5 µM (active).
Regarding `CCOC(=O)CCCCCC(=O)Nc1ccc2c(c1)CC(=O)N([C@@H](C)CO)C[C@H](C)[C@@H](CN(C)C(=O)Nc1ccc3c(c1)OCO3)O2`, the AC50 in [26] was > 60 µM (inactive).
